From PubChem BioAssay AID611 (The Scripps Research Institute Molecular Screening Center, 2007) come the findings set out here.

The source made the active and inactive calls.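 Rule for the calls: active = IC50 at or below 10 micromolar, estimated by hand when no curve fit or under half inhibition at top dose; inactive = IC50 above 10 micromolar.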 Bounds are passed on as bounds.

The target of the assay is Steroidogenic factor 1 (Homo sapiens) (UniProt Q13285). Kind of assay: inhibition of SF-1 LBD-driven luciferase – cell-based, CHO-K1, Gal4-SF-1 LBD, luciferase luminescence, counter-screen for RORA inhibitor project, dose response (AID 611). The note with it: CHO-K1 Gal4-SF-1 LBD luciferase reporter. For orientation: Counterscreens check selectivity or assay interference.
Steroidogenic factor 1 (Homo sapiens), sequence (Q13285 whole entry, looked up, the tested form may be a part): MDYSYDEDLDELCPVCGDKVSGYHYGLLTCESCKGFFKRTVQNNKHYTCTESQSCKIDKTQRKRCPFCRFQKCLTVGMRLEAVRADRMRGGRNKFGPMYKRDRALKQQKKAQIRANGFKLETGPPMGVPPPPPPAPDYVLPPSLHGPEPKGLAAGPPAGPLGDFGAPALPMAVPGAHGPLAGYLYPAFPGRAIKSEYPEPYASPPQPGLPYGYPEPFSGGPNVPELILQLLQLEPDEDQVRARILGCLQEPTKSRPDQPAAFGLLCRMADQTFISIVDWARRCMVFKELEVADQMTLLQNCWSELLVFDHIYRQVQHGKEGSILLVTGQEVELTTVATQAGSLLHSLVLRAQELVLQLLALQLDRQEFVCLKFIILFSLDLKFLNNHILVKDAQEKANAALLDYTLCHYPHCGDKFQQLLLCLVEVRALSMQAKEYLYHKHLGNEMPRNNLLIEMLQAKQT
Consider `CC(=O)CC1OC(=O)C(Br)=C1NCc1ccccc1` (centres undefined), for which the IC50 result was “inactive”.

Turning to `O=C(O)CCCCCN1C(=O)CSC1=S`, the IC50 was > 99 µM (inactive).

Regarding `O=S(=O)(c1ccc2c(c1)C(=NO)c1cc(S(=O)(=O)N3CCCCC3)ccc1-2)N1CCCCC1`, the 50% inhibitory concentration (IC50) was 2.14 µM.

`O=C(/C=C\Nc1ccccn1)c1ccc(Cl)cc1`: the IC50 was 4.88 µM.

For `COC(=O)C1=C(CN2CCCc3ccccc32)NC(=O)NC1c1ccc(F)cc1` (centres undefined), the half-inhibitory concentration (IC50) was 6.66 µM.

`COc1cc(/C=N/O)ccc1OCc1ccc(C(=O)O)cc1`: the IC50 is 0.675 µM.

Turning to `Cn1nc(CC(=O)Nc2ccc(N3CCN(C(=O)OC(C)(C)C)CC3)cc2)c2ccccc2c1=O`, the IC50 is 2.55 µM.

Consider `O=C(/C=C\Nc1ccc2c(c1)OCO2)c1ccccn1`, for which the IC50 was 1.5 µM.

On to `Cc1ccc(C(=O)/C=C/Nc2ccccn2)cc1`, for which the 50% inhibitory concentration (IC50) was 1.5 µM.

What is called IC50 is the concentration that gives 50% inhibition.
